In patent US20160223554A1, “METHODS FOR DIAGNOSIS, PROGNOSIS AND METHODS OF TREATMENT” (priority 2011, published 2016):
Read-outs that look alike come from different tables or passages of the source.

Tests used:
[1] = cited from earlier work
AML blasts [2] = test: In vitro drug-induced apoptosis (c-PARP, amine aqua) in primary AML samples (Example 20); assay type: cell-based, human; details: for cells induced to undergo apoptosis: sample COG-06 (MDR+); for cells induced to undergo apoptosis / cells undergoing apoptosis / apoptotic cells: 48 hours, CLO 0.25 μM, AZA 2.5 μM, DEC 0.625 μM; for Apo: sample COG-06, 48 hour treatment; for cells undergoing apoptosis: sample COG-07; for apoptotic cells: sample COG-09
Procedure: (§1) Cryopreserved peripheral blood (PBMC) or bone marrow (BMMC) mononuclear cells were obtained from patients with a new diagnosis of AML treated at British Columbia Cancer Agency or Lucile Packard Children's Hospital at Stanford University. All patients provided informed consent for research purposes. Samples were processed (thawed, modulated, fixed, permeabilized, and incubated with antibodies to both surface and intracellular proteins) as previously described (Kornblau, Minden et al., Dynamic single-cell network profiles in acute myelogenous leukemia are associated with patient response to standard induction therapy, 2010, Journal/Clin Cancer Res, 16, 14, 3721-3733; Rosen, Minden et al., Functional characterization of FLT3 receptor signaling deregulation in acute myeloid leukemia by single cell network profiling (SCNP), 2010, Journal/PLoS One, 5, 10, e13543). In this study, cellular DNA damage repair (DDR) and apoptosis were measured simultaneously in AML blasts after exposure to chemotherapeutic agents. Antibodies against phosphorylated (p)-H2AX or p-Chk2 were used to measure the DDR to DSB, while simultaneous measurements of cleaved PARP (c-PARP) and amine aqua viability dye were used to quantify apoptosis and cell death. Chemotherapeutics included Ara-C/Dauno (the two drugs currently used in standard AML induction therapy), Gemtuzumab Ozogamicin (GO), and three other agents currently being evaluated in AML clinical trials [Decitabine (DEC), 5-azacytidine (AZA) and Clofarabine (CLO)]. […] Drug-specific incubation times were chosen to analyze both DDR and apoptosis readouts: Ara-C/Dauno (24 hours), GO, CLO, AZA, DEC (48 hours). […] Similarly, apoptosis responses were not observed for DEC until 48 hours and were higher for AZA at 48 hours (data not shown). PI3Kinase/Akt and Raf/Ras pathway activities were assessed using stem cell factor (SCF) induced p-Akt and p-Erk readouts. Data was acquired on an LSRII flow cytometer and leukemic cells were identified by CD45 versus right-angle light-scatter. Metrics for DDR (Log2Fold) and induced apoptosis have been described previously (Rosen, Putta et al., Distinct patterns of DNA damage response and apoptosis correlate with Jak/Stat and PI3kinase response profiles in human acute myelogenous leukemia, 2010, Journal/PLoS One, 5, 8, e12405).

AML blasts [3] = test: DNA damage response (p-H2AX, p-Chk2) to chemotherapeutics in primary AML samples (Example 20); assay type: cell-based, human; details: for timing of induced DNA damage (pH2AX) relative to apoptosis: primary AML samples; for DDR: pH2AX, 48 hour treatment
Procedure: as §1

| Compound | peak plasma concentration ([1]; Daunorubicin at 25 mg/m2) | peak plasma concentration ([1]; Daunorubicin at 50 mg/m2) | cells induced to undergo apoptosis (AML blasts [2]) | Apo (AML blasts [2]) | cells undergoing apoptosis (AML blasts [2]) | apoptotic cells (AML blasts [2]) | timing of induced DNA damage (pH2AX) relative to apoptosis (AML blasts [3]) | DNA damage response (DDR) (AML blasts [3]; sample COG-06) | DDR (AML blasts [3]; sample COG-06) | DNA damage response (DDR) (AML blasts [3]; sample COG-07) | DNA damage response (DDR) (AML blasts [3]; sample COG-09) | DDR (AML blasts [3]; sample COG-09) |
| --- | --- | --- | --- | --- | --- | --- | --- | --- | --- | --- | --- | --- |
| COc1cccc2c1C(=O)c1c(O)c3c(c(O)c1C2=O)C[C@@](O)(C(C)=O)C[C@@H]3O[C@H]1C[C@H](N)[C@H](O)[C@H](C)O1 [Daunorubicin] | 50 ng/mL | 200 ng/mL |  |  |  |  |  |  |  |  |  |  |
| Nc1ncn([C@H]2C[C@H](O)[C@@H](CO)O2)c(=O)n1 [DEC] |  |  | 55.8% | + (For Apo, “+” signifies induced apoptosis >50%.) | 29% | 5% |  |  |  |  |  |  |
| Nc1nc(Cl)nc2c1ncn2[C@@H]1O[C@H](CO)[C@@H](O)[C@@H]1F [CLO] |  |  | 81% | + (For Apo, “+” signifies induced apoptosis >50%.) | 20% | 13% | before apoptosis | robust DDR | + (For DDR, “+” signifies Log2Fold >0.5 (in live cPARP- cells).) | defective DDR | robust DDR | + (For DDR, “+” signifies Log2Fold >0.5 (in live cPARP- cells).) |
| GO: recombinant humanized IgG4, kappa antibody conjugated with a cytotoxic antitumor antibiotic, calicheamicin |  |  |  |  |  |  | before apoptosis |  |  |  |  |  |
